Results from patent publication US8598078B2, “Condensed anthran I lami de derivatives as insecticides” (Syngenta Crop Protection, LLC, priority 2007, dated 2013).
Like-named read-outs stand apart in the source and are kept apart here.

Experiments:
[1] = tested on: Plutella xylostella (diamond back moth); assay: Plutella xylostella (larvicide, feeding/residual contact activity, preventive), artificial diet MTP; assay type: in vivo; conditions: 120 h, read-out: activity (larval mortality, antifeedant, growth regulation)
Method: Plutella xylostella (Diamond Back Moth)
(§1) (Larvicide, Feeding/Residual Contact Activity, Preventive)
24-well microtiter plate (MTP) with artificial diet was treated with test solutions by pipetting. After drying, the MTP's were infested with larvae (L2) (10-15 per well). After an incubation period of 5 days, samples were checked for larval mortality, antifeedant and growth regulation.

[2] = tested on: Myzus persicae (green peach aphid); assay: Activity against Myzus persicae (mixed population, systemic/feeding activity, curative), pea seedling roots in test solution; assay type: in vivo; conditions: 144 h, read-out: activity (mortality and special effects on the plant)
Excerpt: (§2) Activity Against Myzus persicae (Green Peach Aphid)
(Mixed Population, Systemic/Feeding Activity, Curative)
Roots of pea seedlings, infested with an aphid population of mixed ages, were placed directly in the test solutions. 6 days after introduction, samples were checked for mortality and special effects on the plant.

[3] = tested on: Spodoptera littoralis (Egyptian cotton leafworm); assay: Activity against Spodoptera littoralis (larvicide, feeding/residual contact activity, preventive), cotton leaf discs; assay type: in vivo; conditions: foliar, 72 h, read-out: activity (mortality, repellent effect, feeding behaviour, growth regulation)
Excerpt: Activity Against Spodoptera littoralis (Egyptian Cotton Leafworm)
as §1
Cotton leaf discs were placed on agar in a 24-well microtiter plate and sprayed with test solutions. After drying, the leaf discs were infested with 5 L1 larvae. The samples were checked for mortality, repellent effect, feeding behaviour, and growth regulation 3 days after treatment.

[4] = tested on: Heliothis virescens (tobacco budworm); assay: Activity against Heliothis virescens (ovo-larvicide, feeding/contact activity, curative), eggs on artificial diet; assay type: in vivo; conditions: read-out: activity (egg mortality, larval mortality, growth regulation)
Method: Activity Against Heliothis virescens (Tobacco Budworm)
(Ovo-Larvicide, Feeding/Contact Activity, Curative)
Eggs (0-24 h old) were placed in 24-well microtiter plate on artificial diet and treated with test solutions by pipetting. After an incubation period of 4 days, samples were checked for egg mortality, larval mortality, and growth regulation.

[5] = tested on: Diabrotica balteata (corn root worm); assay: Diabrotica balteata (larvicide, feeding/residual contact activity, preventive), artificial diet MTP; assay type: in vivo; conditions: 120 h, read-out: activity (larval mortality, antifeedant, growth regulation)
Method: Diabrotica balteata (Corn Root Worm)
as §1
24-well microtiter plate (MTP) with artificial diet was treated with test solutions by pipetting. After drying, the MTP's were infested with larvae (L2) (6-10 per well). After an incubation period of 5 days, samples were checked for larval mortality, antifeedant and growth regulation.

[6] = tested on: Nilaparvata lugens (brown rice planthopper); assay: Activity against Nilaparvata lugens (larvicide, feeding/contact), rice seedlings; assay type: in vivo; conditions: read-out: activity (mortality, growth regulation, effects on the F1 generation)
Method: Activity Against Nilaparvata lugens (Brown Rice Planthopper)
(Larvicide, Feeding/Contact)
Rice seedlings were treated with the diluted test solutions in a spray chamber. After drying, they were infested with 20 N3 nymphs (2 replicates). 6-12 days after the treatment samples were checked for mortality, growth regulation, and effects on the F, generation.

[7] = tested on: Myzus persicae (green peach aphid); assay: Activity against Myzus persicae (mixed population, feeding/residual contact activity, preventive), sunflower leaf discs; assay type: in vivo; conditions: foliar, 144 h, read-out: activity (mortality and special effects)
Method: as §2
(§3) (Mixed Population, Feeding/Residual Contact Activity, Preventive)
(§4) Sunflower leaf discs were placed on agar in a 24-well microtiter plate and sprayed with test solutions. After drying, the leaf discs were infested with an aphid population of mixed ages. After an incubation period of 6 days, samples were checked for mortality and special effects (e.g. phytotoxicity).

[8] = tested on: Thrips tabaci (onion thrips); assay: Activity against Thrips tabaci (mixed population, feeding/residual contact activity, preventive), sunflower leaf discs; assay type: in vivo; conditions: foliar, 144 h, read-out: activity (mortality and special effects)
Method: Activity Against Thrips tabaci (Onion Thrips)
as §3
as §4, with “a thrips” for “an aphid”

[9] = 400 ppm, L2 larvae on treated artificial diet, 5 days incubation
[10] = 400 ppm, L1 larvae on sprayed cotton leaf discs, 3 days after treatment
[11] = 400 ppm, eggs 0-24 h old on artificial diet, 4 days incubation
[12] = 400 ppm, N3 nymphs on sprayed rice seedlings, 6-12 days after treatment
[13] = 400 ppm, mixed-age aphids on sprayed sunflower leaf discs, 6 days incubation

melting point	Structure (SMILES)	mortality at 400 ppm [1] [%]	mortality at 400 ppm [2] [%]	mortality at 400 ppm [3] [%]	mortality at 400 ppm [8] [%]	mortality at 400 ppm [4] [%]	mortality at 400 ppm [5] [%]	mortality at 400 ppm [6] [%]	mortality at 400 ppm [7] [%]	also measured
	CCCCCCCCCCCCOCCOC(=O)n1cc2cc(C)c(NC(=O)c3cc(OC)nn3-c3ncccc3Cl)c(C(=O)NC(C)C)c2n1 [P.29]									mortality at 400 ppm [1, 9]: > 80%; mortality at 400 ppm ([2]; 400 ppm, systemic, roots of infested pea seedlings in test solution, 6 days): > 80%; mortality at 400 ppm [3, 10]: > 80%; mortality at 400 ppm [4, 11]: > 80%; mortality at 400 ppm [5, 9]: > 80%; mortality at 400 ppm [6, 12]: > 80%; mortality at 400 ppm [7, 13]: > 80%
66 to 70 °C	CCCCCCCCN(C)C(=O)n1cc2cc(C)c(NC(=O)c3cc(OC)nn3-c3ncccc3Cl)c(C(=O)NC(C)C)c2n1									
	COCn1ncc2cc(C)c(NC(=O)c3cc(OC)nn3-c3ncccc3Cl)c(C(=O)NC(C)C)c21 [P.19]	> 80	> 80	> 80	> 80	> 80	> 80	> 80	> 80	
	COCCOCn1cc2cc(C)c(NC(=O)c3cc(OC)nn3-c3ncccc3Cl)c(C(=O)NC(C)C)c2n1 [P.12, 6-{[2-(3-chloro-pyridin-2-yl)-5-methoxy-2H-pyrazole-3-carbonyl]-amino}-2-(2-methoxy-ethoxymethyl)-5-methyl-2H-indazole-7-carboxylic acid isopropylamide]	> 80	> 80	> 80	> 80	> 80		> 80	> 80	
226 to 230 °C	COc1cc(C(=O)Nc2c(C)cc3cn(-c4nc(OC)nc(OC)n4)nc3c2C(=O)NC(C)C)n(-c2ncccc2Cl)n1									
	CCCC(C)(C)C(=O)n1cc2cc(C)c(NC(=O)c3cc(OC)nn3-c3ncccc3Cl)c(C(=O)NC(C)C)c2n1 [P.31]	> 80	> 80	> 80	> 80	> 80	> 80	> 80	> 80	
	COc1cc(C(=O)Nc2c(C)cc3cn(C(=O)C(C)(C)C)nc3c2C(=O)NC(C)C)n(-c2ncccc2Cl)n1 [P.26]	> 80	> 80	> 80		> 80	> 80	> 80	> 80	
	COCn1ncc2cc(Cl)c(NC(=O)c3cc(C(F)(F)F)nn3-c3ncccc3Cl)c(C(=O)NC(C)C)c21 [P.2]	> 80	> 80	> 80	> 80	> 80	> 80	> 80	> 80	
	CCCCCCCCCCCCCCCCOCCOCCOC(=O)n1cc2cc(C)c(NC(=O)c3cc(OC)nn3-c3ncccc3Cl)c(C(=O)NC(C)C)c2n1 [P.23]									mortality at 400 ppm [1, 9]: > 80%; mortality at 400 ppm [3, 10]: > 80%; mortality at 400 ppm ([8]; 400 ppm, mixed-age thrips on sprayed sunflower leaf discs, 6 days incubation): > 80%; mortality at 400 ppm [4, 11]: > 80%; mortality at 400 ppm [5, 9]: > 80%; mortality at 400 ppm [6, 12]: > 80%; mortality at 400 ppm [7, 13]: > 80%
216 °C (dec.)	COc1cc(C(=O)Nc2c(C)cc3cn(-c4nc(Cl)nc(Cl)n4)nc3c2C(=O)NC(C)C)n(-c2ncccc2Cl)n1									
85 to 86 °C	CCOC(=O)CSC(=O)n1cc2cc(C)c(NC(=O)c3cc(OC)nn3-c3ncccc3Cl)c(C(=O)NC(C)C)c2n1									
156 to 160 °C	COc1cc(C(=O)Nc2c(C)cc3cn(Cc4ccccn4)nc3c2C(=O)NC(C)C)n(-c2ncccc2Cl)n1									
161 to 162 °C	COc1cc(C(=O)Nc2c(C)cc3cn(C(=O)OC(C)(C)C)nc3c2C(=O)NC(C)C)n(-c2ncccc2Cl)n1									
